Measured values published in US20240189289A1, “INHIBITORS OF EPHB3 SIGNALING” (The Brigham and Women`s Hospital, Inc., priority 2021, published 2024).
Where two headings read alike, the source gives them in different places.

Tests used:
Format in all cases: biochemical
EphB4 = molecular target: T1, EphB4 (Homo sapiens, UniProt P54760); test: Eph receptor kinase activity assay (radiometric), EphB4; conditions: for remaining activity at 0.01 µM: 10 nM compound, read-out: EphB4 % act 10 nM; for remaining activity at 0.03 µM: 30 nM compound, read-out: EphB4 % act 30 nM; for remaining activity at 0.1 µM: 100 nM compound, read-out: EphB4 % act 100 nM; for IC50: Table 2, Example 12
T1 sequence (P54760 16-987): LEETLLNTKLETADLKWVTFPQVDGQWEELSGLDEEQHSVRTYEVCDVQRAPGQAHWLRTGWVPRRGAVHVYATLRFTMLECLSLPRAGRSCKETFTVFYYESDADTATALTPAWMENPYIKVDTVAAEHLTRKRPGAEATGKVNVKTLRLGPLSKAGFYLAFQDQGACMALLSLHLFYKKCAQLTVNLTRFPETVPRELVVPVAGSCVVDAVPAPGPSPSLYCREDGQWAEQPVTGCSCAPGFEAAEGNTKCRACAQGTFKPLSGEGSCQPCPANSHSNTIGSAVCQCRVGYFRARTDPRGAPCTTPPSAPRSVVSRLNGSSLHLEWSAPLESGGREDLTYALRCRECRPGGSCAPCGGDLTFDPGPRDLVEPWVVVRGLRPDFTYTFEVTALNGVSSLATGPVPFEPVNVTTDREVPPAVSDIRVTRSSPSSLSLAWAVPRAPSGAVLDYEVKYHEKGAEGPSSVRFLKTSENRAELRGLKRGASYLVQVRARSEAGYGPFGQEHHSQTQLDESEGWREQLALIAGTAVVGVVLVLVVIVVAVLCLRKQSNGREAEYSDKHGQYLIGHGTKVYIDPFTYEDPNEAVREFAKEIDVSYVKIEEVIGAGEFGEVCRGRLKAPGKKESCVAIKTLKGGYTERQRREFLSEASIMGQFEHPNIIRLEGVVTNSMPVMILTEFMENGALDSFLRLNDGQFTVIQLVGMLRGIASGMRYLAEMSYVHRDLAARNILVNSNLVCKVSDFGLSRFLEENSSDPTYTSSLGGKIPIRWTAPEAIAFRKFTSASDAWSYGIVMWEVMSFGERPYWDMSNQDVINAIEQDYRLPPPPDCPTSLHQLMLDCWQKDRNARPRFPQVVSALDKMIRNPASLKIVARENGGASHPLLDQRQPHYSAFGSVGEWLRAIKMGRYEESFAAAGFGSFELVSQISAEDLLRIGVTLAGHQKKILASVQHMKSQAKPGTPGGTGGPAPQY

EphA2 = EphA2 (Homo sapiens, UniProt P29317); test: Eph receptor kinase activity assay (radiometric), EphA2; conditions: for remaining activity at 0.01 µM: 10 nM compound, read-out: EphA2 % act 10 nM; for remaining activity at 0.03 µM: 30 nM compound, read-out: EphA2 % act 30 nM; for remaining activity at 0.1 µM: 100 nM compound, read-out: EphA2 % act 100 nM; for IC50: Table 2, Example 12
EphB3 = molecular target: T2, EphB3 (Homo sapiens, UniProt P54753); test: EphB3 radiometric kinase activity assay (33P ATP filter binding); conditions: for remaining activity at 0.01 µM: 10 nM compound, read-out: EphB3 % act 10 nM; for remaining activity at 0.03 µM: 30 nM compound, read-out: EphB3 % act 30 nM; for remaining activity at 0.1 µM: 100 nM compound, read-out: EphB3 % act 100 nM
T2 sequence (P54753 34-998): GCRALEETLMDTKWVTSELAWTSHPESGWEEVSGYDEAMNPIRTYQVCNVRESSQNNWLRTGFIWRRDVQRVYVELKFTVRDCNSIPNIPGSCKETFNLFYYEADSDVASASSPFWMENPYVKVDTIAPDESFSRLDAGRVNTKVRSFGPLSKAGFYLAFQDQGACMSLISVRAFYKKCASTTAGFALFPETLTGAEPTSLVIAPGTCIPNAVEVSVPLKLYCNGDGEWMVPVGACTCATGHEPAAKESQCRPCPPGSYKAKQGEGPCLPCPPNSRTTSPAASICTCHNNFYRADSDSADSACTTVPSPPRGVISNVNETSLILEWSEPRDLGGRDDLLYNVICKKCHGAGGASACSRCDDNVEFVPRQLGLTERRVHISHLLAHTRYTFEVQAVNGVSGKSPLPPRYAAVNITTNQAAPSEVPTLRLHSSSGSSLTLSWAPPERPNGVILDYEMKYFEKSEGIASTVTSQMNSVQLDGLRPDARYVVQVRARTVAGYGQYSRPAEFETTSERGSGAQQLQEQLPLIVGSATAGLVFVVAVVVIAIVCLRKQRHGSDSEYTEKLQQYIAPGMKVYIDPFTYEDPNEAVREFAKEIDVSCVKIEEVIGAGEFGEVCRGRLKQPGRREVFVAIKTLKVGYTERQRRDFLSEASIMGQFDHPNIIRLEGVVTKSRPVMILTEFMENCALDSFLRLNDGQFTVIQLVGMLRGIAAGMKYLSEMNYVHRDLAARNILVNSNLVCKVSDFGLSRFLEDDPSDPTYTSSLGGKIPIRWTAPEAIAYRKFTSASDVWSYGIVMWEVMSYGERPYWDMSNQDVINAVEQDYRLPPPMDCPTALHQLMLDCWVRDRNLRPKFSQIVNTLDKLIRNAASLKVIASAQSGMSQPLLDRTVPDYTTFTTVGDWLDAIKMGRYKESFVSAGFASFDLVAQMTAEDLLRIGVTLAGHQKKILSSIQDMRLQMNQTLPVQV
Procedure: EphB3 radiometric kinase activity assay. To study the EphB3 kinase activity, a radioactive filter binding assay using 33P ATP was performed as described at the […] International Centre for Kinase profiling. […] The mix was harvested onto P81 filter plates and counts were read on a Topcount NXT.

EphA4 = EphA4 (Homo sapiens, UniProt P54764); test: Eph receptor kinase activity assay (radiometric), EphA4; conditions: for remaining activity at 0.01 µM: 10 nM compound, read-out: EphA4 % act 10 nM; for remaining activity at 0.03 µM: 30 nM compound, read-out: EphA4 % act 30 nM; for remaining activity at 0.1 µM: 100 nM compound, read-out: EphA4 % act 100 nM; for IC50: Table 2, Example 12
[1] = Table 2, Example 12, read-out: EphB3 (nM) IC50

EphA2, sequence (P29317 24-976): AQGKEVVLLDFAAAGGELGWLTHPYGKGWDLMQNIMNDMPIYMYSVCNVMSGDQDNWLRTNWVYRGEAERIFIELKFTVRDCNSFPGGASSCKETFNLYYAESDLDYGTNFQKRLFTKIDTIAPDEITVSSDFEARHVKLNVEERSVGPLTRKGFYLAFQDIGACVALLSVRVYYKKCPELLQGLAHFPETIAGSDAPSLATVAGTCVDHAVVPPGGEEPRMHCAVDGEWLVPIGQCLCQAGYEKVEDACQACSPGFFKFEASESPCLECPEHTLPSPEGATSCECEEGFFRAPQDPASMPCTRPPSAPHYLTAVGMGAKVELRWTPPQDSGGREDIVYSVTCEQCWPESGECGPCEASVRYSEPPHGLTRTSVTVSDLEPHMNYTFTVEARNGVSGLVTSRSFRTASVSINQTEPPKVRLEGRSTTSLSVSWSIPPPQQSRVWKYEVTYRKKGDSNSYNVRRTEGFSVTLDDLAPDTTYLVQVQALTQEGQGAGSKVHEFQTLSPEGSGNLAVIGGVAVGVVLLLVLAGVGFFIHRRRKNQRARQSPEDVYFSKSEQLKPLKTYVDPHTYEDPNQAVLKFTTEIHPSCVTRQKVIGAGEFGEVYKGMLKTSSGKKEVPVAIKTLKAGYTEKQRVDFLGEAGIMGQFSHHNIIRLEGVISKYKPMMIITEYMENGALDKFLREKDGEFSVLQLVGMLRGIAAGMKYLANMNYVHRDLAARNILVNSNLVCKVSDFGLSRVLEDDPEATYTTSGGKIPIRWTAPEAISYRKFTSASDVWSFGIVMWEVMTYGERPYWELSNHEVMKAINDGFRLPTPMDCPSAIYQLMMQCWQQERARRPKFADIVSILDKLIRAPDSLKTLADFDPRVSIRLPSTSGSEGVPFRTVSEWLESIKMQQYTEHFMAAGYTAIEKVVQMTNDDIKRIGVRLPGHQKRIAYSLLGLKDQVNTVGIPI
EphA4, sequence (P54764 20-986): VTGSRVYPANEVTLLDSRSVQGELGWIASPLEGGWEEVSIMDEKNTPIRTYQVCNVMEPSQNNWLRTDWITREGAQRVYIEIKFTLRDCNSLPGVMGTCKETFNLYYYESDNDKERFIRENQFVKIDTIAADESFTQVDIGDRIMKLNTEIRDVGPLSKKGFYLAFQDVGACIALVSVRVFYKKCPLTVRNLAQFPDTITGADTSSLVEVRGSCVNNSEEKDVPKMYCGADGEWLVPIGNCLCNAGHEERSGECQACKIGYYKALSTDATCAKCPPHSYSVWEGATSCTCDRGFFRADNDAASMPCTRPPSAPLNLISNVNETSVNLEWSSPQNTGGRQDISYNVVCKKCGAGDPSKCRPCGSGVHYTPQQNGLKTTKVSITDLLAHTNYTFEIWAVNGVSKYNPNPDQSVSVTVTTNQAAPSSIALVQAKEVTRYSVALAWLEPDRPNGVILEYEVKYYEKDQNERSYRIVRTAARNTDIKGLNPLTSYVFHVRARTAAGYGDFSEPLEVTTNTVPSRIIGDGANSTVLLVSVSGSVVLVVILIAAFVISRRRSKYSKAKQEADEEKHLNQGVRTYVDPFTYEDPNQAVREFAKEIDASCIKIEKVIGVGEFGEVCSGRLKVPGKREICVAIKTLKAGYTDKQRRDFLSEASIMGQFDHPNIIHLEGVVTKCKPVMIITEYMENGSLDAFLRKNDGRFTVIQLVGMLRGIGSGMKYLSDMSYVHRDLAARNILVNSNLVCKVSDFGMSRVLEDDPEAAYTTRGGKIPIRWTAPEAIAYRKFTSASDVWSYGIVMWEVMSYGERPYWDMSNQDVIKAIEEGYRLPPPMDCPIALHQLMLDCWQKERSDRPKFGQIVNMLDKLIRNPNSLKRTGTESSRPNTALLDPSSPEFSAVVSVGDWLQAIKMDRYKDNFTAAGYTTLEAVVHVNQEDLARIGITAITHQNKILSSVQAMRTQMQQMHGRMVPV

| SMILES | remaining activity at 0.01 µM (EphB4) | remaining activity at 0.03 µM (EphB4) | remaining activity at 0.1 µM (EphB4) | IC50 (EphB4) | remaining activity at 0.01 µM (EphA2) | remaining activity at 0.03 µM (EphA2) | remaining activity at 0.1 µM (EphA2) | IC50 (EphA2) | remaining activity at 0.01 µM (EphB3) | remaining activity at 0.03 µM (EphB3) | remaining activity at 0.1 µM (EphB3) | IC50 (EphB3; [1]) | remaining activity at 0.01 µM (EphA4) | remaining activity at 0.03 µM (EphA4) | remaining activity at 0.1 µM (EphA4) | IC50 (EphA4) | IC50 (EphB3; Example 14, read-out: IC50 (μM), EphB3 receptor kinase inhibitory activity) |
| --- | --- | --- | --- | --- | --- | --- | --- | --- | --- | --- | --- | --- | --- | --- | --- | --- | --- |
| COc1ccccc1-c1ccc2ncc(C(=O)Nc3ccccc3Cl)n2c1 [compound 101, N-(2-Chlorophenyl)-6-(2-methoxyphenyl)imidazo[1,2-a]pyridine-3-carboxamide] | 98.8% | 101% | 82% | 675 nM | 67.7% | 65.4% | 77% | 315 nM | 80.9% | 62% | 52.7% | 90 nM | 100% | 80.2% | 74.5% | 297 nM |  |
| COc1ccc(-c2ccc3ncc(C(=O)Nc4ccccc4Cl)n3c2)cc1 [compound 102, N-(2-Chlorophenyl)-6-(4-methoxyphenyl)imidazo[1,2-a]pyridine-3-carboxamide] | 104% | 103% | 98% |  | 79.9% | 69.4% | 59.6% |  | 92.4% | 92.7% | 88.6% |  | 80.4% | 74.1% | 83.9% |  |  |
| COc1cccc(-c2ccc3ncc(C(=O)Nc4ccccc4Cl)n3c2)c1 [compound 103, N-(2-Chlorophenyl)-6-(3-methoxyphenyl)imidazo[1,2-a]pyridine-3-carboxamide] | 94.7% | 106% | 132% |  | 76% | 75.3% | 70.5% |  | 103% | 86.2% | 41% |  | 102% | 85.1% | 85.6% |  |  |
| Cc1ccc(-c2ccc3ncc(C(=O)Nc4ccccc4Cl)n3c2)cc1 [compound 104, N-(2-Chlorophenyl)-6-(4-methylphenyl)imidazo[1,2-a]pyridine-3-carboxamide] | 93.1% | 95.5% | 98.4% |  | 78.1% | 86% | 55.9% |  | 110% | 60.5% | 55.9% |  | 83.8% | 62.8% | 57.8% |  |  |
| Cc1cccc(-c2ccc3ncc(C(=O)Nc4ccccc4Cl)n3c2)c1 [compound 105, N-(2-Chlorophenyl)-6-(3-methylphenyl)imidazo[1,2-a]pyridine-3-carboxamide] | 103% | 109% | 93.8% |  | 105% | 88.1% | 65.3% |  | 121% | 81.1% | 63.7% |  | 53.9% | 40.9% | 35.3% |  |  |
| Cc1ccccc1-c1ccc2ncc(C(=O)Nc3ccccc3Cl)n2c1 [compound 106, N-(2-Chlorophenyl)-6-(2-methylphenyl)imidazo[1,2-a]pyridine-3-carboxamide] | 98.9% | 106% | 110% | 675 nM | 110% | 78.9% | 72.7% | 245 nM | 132% | 93.8% | 63.5% | 182 nM | 83.8% | 58.3% | 55.1% | 110 nM | 130 nM |
